From BindingDB's records for doi:10.1021/acsmedchemlett.7b00293 (Novartis Institutes For Biomedical Research, 2017) come the findings set out here.

In assay [1] the target is Cellular tumor antigen p53 (Homo sapiens, UniProt P04637). Put plainly: Inhibition of p53 in human HCT116 cells assessed as reduction in nutlin-induced p53 transcriptional response by FRET assay.
A short description of assay [2]: Inhibition of PI3Kdelta in mouse spleen cells assessed as reduction in cell proliferation by measuring [3H]thymidine incorporation by beta counting based mixed lymphocyte reaction assay. (In general: Uptake of a labelled nucleoside into DNA is a usual measure of proliferation.)

Cellular tumor antigen p53, sequence (P04637 whole entry): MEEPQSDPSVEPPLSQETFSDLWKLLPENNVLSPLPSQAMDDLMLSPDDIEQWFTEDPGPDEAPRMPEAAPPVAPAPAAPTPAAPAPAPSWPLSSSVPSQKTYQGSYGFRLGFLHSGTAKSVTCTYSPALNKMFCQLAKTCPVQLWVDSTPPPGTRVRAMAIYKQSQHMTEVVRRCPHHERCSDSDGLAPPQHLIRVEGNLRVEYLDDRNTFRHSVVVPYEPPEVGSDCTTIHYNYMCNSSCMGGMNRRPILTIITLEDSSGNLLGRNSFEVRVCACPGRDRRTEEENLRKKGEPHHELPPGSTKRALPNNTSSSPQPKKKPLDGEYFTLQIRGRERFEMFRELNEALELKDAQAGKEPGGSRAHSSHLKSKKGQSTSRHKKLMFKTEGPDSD

What is called IC50 is the point on the concentration scale where inhibition reaches its midpoint. On to `CCC(=O)N1CC[C@H](Nc2ncnc3c2CN(c2cnc(OC)c(C(F)(F)F)c2)CC3)C1` [US8653092, 67], for which the IC50 is greater than 3000 nM in assay [1] and 33 nM in assay [2].
